The values below come from US20260035403A1, “NUCLEOSIDE LINE-1 INHIBITORS” (TRANSPOSON THERAPEUTICS, INC., priority 2022, published 2026).

This experiment deals with human LINE-1. Briefly: Human LINE-1 retrotransposition assay (HeLa cell-based dual-luciferase reporter). As to conditions: Homo sapiens, HeLa, 72 h, Human LINE-1 activity inhibition; HeLa cells, reporter plasmid pYX017, Firefly/Renilla, 72 h incubation. The protocol: Representative Compounds of the Disclosure were tested for inhibition of retrotransposition activity of human LINE-1 in HeLa cells according to the following procedure.
HeLa cervical cancer cells were cultivated at 37° C. in a humidified 5% CO2 incubator in Dulbecco's Modified Eagle's Medium (DMEM)—high glucose, with 4500 mg/L glucose, L-glutamine, sodium pyruvate and sodium bicarbonate (Sigma), supplemented with 10% of heat inactivated fetal bovine serum (Thermo Fisher).
Assays were performed using reporter plasmid pYX017 as described (Xie, et al., 2011) with several modifications. The reporter assay was performed in 96-well white optical bottom plates. HeLa cells were seeded in wells 24 h prior to transfection and compound treatment so that cells were approximately 30% confluent on the day of transfection. Different cell plating densities were tested and a density of 2×10^3 cells was determined to be optimal.
Compounds were resuspended in DMSO. Serial dilutions (1:3) were prepared in DMSO. Medium containing different concentrations of the compounds were prepared by adding 2 μl of the compound dilution to 1 ml of the culture medium. The final concentration of DMSO in the medium was 0.2%.
FuGENE® HD transfection reagent (Promega, E2311, Lot 382574 and Lot 397842) was used to transfect the plasmids into the cells. The transfection reagent: DNA mixture was prepared in OpiMEM (Thermo Fisher) according to manufacturer's instructions. Different ratios of transfection reagent to DNA were tested and a ratio of 3:1 was determined to be optimal. Culture medium was removed from the cells and discarded. The transfection reagent: DNA mixture (5 μl) was mixed with the compound containing medium (100 μl/well) and this was added onto the cells of each well. Cells were incubated at 37° C./5% CO2 for different incubation time. A 72 h incubation time was determined to be optimal.
Luciferase reporter activity was quantified with the Dual-Luciferase® Reporter Assay System (Promega) according to manufacturer's instructions for multiwell plates except that cells were lysed directly on the multiwell plate with 30 μl of the passive lysis buffer (PLB) for 20 min at room temperature, with gentle shaking to ensure complete cell lysis.
Firefly and Renilla luciferase signals were measured using a SpectraMax i3× Multi-Mode Microplate Reader. Integration times of 100 ms and 10 ms were used to measure the Firefly and Renilla signals respectively. Relative L1 activity is calculated as Firefly/Renilla*1000 or Firefly/Renilla*10,000. Dose response inhibition data were fit to a four parameter logistic equation using non-linear regression (using Graphpad Prism 8), to determine IC50 values for each inhibitor.
A general note: Reporter assays use an easily measured gene product as a stand-in for the process of interest.
In general, IC50 refers to the concentration that inhibits the measured activity by half. `N#C[C@]1(CO)O[C@@H](n2cc(Cl)c(N)nc2=O)C[C@@H]1O` [compound 164, (2R,3S,5R)-5-(4-amino-5-chloro-2-oxopyrimidin-1(2H)-yl)-3-hydroxy-2-(hydroxymethyl)tetrahydrofuran-2-carbonitrile] returned an IC50 of over 50 µM.
On to `CC[C@]1(CO)O[C@@H](n2cnc3c(NC4CC4)nc(F)nc32)C[C@@H]1O` [Cpd. No. 99, (2R,3S,5R)-5-(6-(cyclopropylamino)-2-fluoro-9H-purin-9-yl)-2-ethyl-2-(hydroxymethyl)tetrahydrofuran-3-ol], for which the half-inhibitory concentration (IC50) worked out at 5.53 µM.
The result for `CC[C@]1(CO)O[C@@H](n2cc(Br)c(=O)[nH]c2=O)C[C@@H]1O` [Cpd. No. 2, 5-bromo-1-((2R,4S,5R)-5-ethyl-4-hydroxy-5-(hydroxymethyl)tetrahydrofuran-2-yl)-4-hydroxypyrimidin-2(1H)-one] reads 6.9 µM; that for `C#C[C@@]1(CO)O[C@@H](n2ccc(N)nc2=O)C[C@H]1O` [Cpd. No. 77, 4-amino-1-((2R,4R,5S)-5-ethynyl-4-hydroxy-5-(hydroxymethyl)tetrahydrofuran-2-yl)pyrimidin-2(1H)-one], over 6.25 µM.
The same measure for `C#C[C@]1(CO)O[C@H](n2cc(Br)c(=O)[nH]c2=O)C[C@@H]1O` [compound 53, 5-bromo-1-((2S,4S,SR)-5-ethynyl-4-hydroxy-5-(hydroxymethyl)tetrahydrofuran-2-yl)pyrimidine-2,4(1H,3H)-dione]: over 50 µM; for `C#C[C@@]1(CO)C=C[C@H](n2ccc3c(=O)[nH]cnc32)O1` [compound 34, 7-((2R,5R)-5-ethynyl-5-(hydroxymethyl)-2,5-dihydrofuran-2-yl)-3,7-dihydro-4H-pyrrolo[2,3-d]pyrimidin-4-one]: over 50 µM.
The same measure for `C#C[C@@]1(CO)C=C[C@H](n2cnc3c(Cl)ncnc32)O1` [compound 39, ((2R,5R)-5-(6-chloro-9H-purin-9-yl)-2-ethynyl-2,5-dihydrofuran-2-yl)methanol]: over 50 µM.
The compound `CC[C@]1(CO)O[C@@H](n2cnc3c(NC4CC4)nc(N)nc32)C[C@@H]1O` [Cpd. No. 97, (2R,3S,5R)-5-(2-amino-6-(cyclopropylamino)-9H-purin-9-yl)-2-ethyl-2-(hydroxymethyl)tetrahydrofuran-3-ol] showed an IC50 of 0.946 µM.
The result for `C#C[C@@]1(CO)C=C[C@H](n2cc(C(F)(F)F)c(=O)[nH]c2=O)O1` [compound 28, 1-((2R,5R)-5-ethynyl-5-(hydroxymethyl)-2,5-dihydrofuran-2-yl)-5-(trifluoromethyl)pyrimidine-2,4(1H,3H)-dione] reads over 12.5 µM; that for `C#C[C@]1(CO)OC(n2cc(C3CC3)c(=O)[nH]c2=O)C[C@@H]1O` (stereo partly drawn) [compound 52, 5-cyclopropyl-1-((4S,5R)-5-ethynyl-4-hydroxy-5-(hydroxymethyl)tetrahydrofuran-2-yl)pyrimidine-2,4(1H,3H)-dione], over 50 µM; that for `CC[C@]1(CO)O[C@@H](n2cnc3c(N)ncnc32)[C@H](O)[C@@H]1O` [compound 196, (2R,3S,4R,5R)-5-(6-amino-9H-purin-9-yl)-2-ethyl-2-(hydroxymethyl)tetrahydrofuran-3,4-diol], over 50 µM.
The same measure for `CC[C@]1(CO)O[C@@H](n2cnc3c(NC4CC4)ncnc32)C[C@@H]1O` [Cpd. No. 96, (2R,3S,5R)-5-(6-(cyclopropylamino)-9H-purin-9-yl)-2-ethyl-2-(hydroxymethyl)tetrahydrofuran-3-ol]: 7 µM; for `CC[C@]1(CO)O[C@@H](n2cnc3c(N)nc(Cl)nc32)[C@@H](O)[C@@H]1O` [compound 193, (2R,3S,4S,5R)-5-(6-amino-2-chloro-9H-purin-9-yl)-2-ethyl-2-(hydroxymethyl)tetrahydrofuran-3,4-diol]: 2.81 µM.
The same measure for `C#C[C@]1(CO)O[C@@H](n2cnc3c(OC)nc(N)nc32)C[C@@H]1O` [compound 101, (2R,3S,5R)-5-(2-amino-6-methoxy-9H-purin-9-yl)-2-ethynyl-2-(hydroxymethyl)tetrahydrofuran-3-ol]: 0.259 µM.
In the case of `Nc1nc(F)nc2c1ncn2[C@H]1C[C@H](O)C(CO)(CO)O1` [compound 154, ((3S,5R)-5-(6-amino-2-fluoro-9H-purin-9-yl)-3-hydroxytetrahydrofuran-2,2-diyl)dimethanol], the IC50 is over 40 µM.
The result for `C#C[C@]1(CO)O[C@@H](n2cnc3c(NC4CC4)nc(F)nc32)C[C@@H]1O` [compound 85, (2R,3S,5R)-5-(6-(cyclopropylamino)-2-fluoro-9H-purin-9-yl)-2-ethynyl-2-(hydroxymethyl)tetrahydrofuran-3-ol] reads 0.124 µM; that for `CNc1nc(N)nc2c1ncn2[C@H]1C[C@H](O)[C@](CO)(CF)O1` [compound 166, (2R,3S,5R)-5-(2-amino-6-(methylamino)-9H-purin-9-yl)-2-(fluoromethyl)-2-(hydroxymethyl)tetrahydrofuran-3-ol], 0.417 µM; that for `CC[C@]1(CO)OC(n2cc(OC)c(=O)[nH]c2=O)C[C@@H]1O` (stereo partly drawn) [Cpd. No. 68, 1-((4S,5R)-5-ethyl-4-hydroxy-5-(hydroxymethyl)tetrahydrofuran-2-yl)-5-methoxypyrimidine-2,4(1H,3H)-dione], 0.721 µM.
The same measure for `C#C[C@]1(CO)O[C@@H](N2C=NC3C(NC)=NC(F)=NC32)C[C@@H]1O` (stereo partly drawn) [compound 93, (2R,3S,5R)-2-ethynyl-5-(2-fluoro-6-(methylamino)-4,5-dihydro-9H-purin-9-yl)-2-(hydroxymethyl)tetrahydrofuran-3-ol]: 15 µM.
The result for `COC[C@@]1(CO)C=C[C@H](n2cc(C)c(=O)[nH]c2=O)O1` [compound 48, 1-((2R,5S)-5-(hydroxymethyl)-5-(methoxymethyl)-2,5-dihydrofuran-2-yl)-5-methylpyrimidine-2,4(1H,3H)-dione] reads over 50 µM.
Take `C=C[C@]1(CO)O[C@@H](n2cnc3c(NC4CC4)nc(N)nc32)C[C@@H]1O` [Cpd. No. 4, (2R,3S,5R)-5-(2-amino-6-(cyclopropylamino)-9H-purin-9-yl)-2-(hydroxymethyl)-2-vinyltetrahydrofuran-3-ol]: the IC50 came out at 0.401 µM.
The result for `CC[C@]1(CO)O[C@@H](n2cc(F)c(=O)[nH]c2=O)C[C@@H]1O` [Cpd. No. 18, 1-((2R,4S,5R)-5-ethyl-4-hydroxy-5-(hydroxymethyl)tetrahydrofuran-2-yl)-5-fluoropyrimidine-2,4(1H,3H)-dione] reads 3.75 µM.
The result for `C#C[C@@]1(CO)C[C@@H](Sc2ccc(C)cc2)[C@H](n2ccc(=O)[nH]c2=O)O1` [compound 31, 1-((2R,3R,5R)-5-ethynyl-5-(hydroxymethyl)-3-(p-tolylthio)tetrahydrofuran-2-yl)pyrimidine-2,4(1H,3H)-dione] reads over 50 µM.
`C#C[C@]1(CO)O[C@@H](n2nc(C)c3c(N)nc(F)nc32)C[C@@H]1O` [Cpd. No. 75, (2R,3S,5R)-5-(4-amino-6-fluoro-3-methyl-1H-pyrazolo[3,4-d]pyrimidin-1-yl)-2-ethynyl-2-(hydroxymethyl)tetrahydrofuran-3-ol] yielded an IC50 of over 50 µM.
The result for `CC[C@]1(CO)O[C@@H](n2cnc3c(OC)nc(N)nc32)C[C@@H]1O` [Cpd. No. 125, (2R,3S,5R)-5-(2-amino-6-methoxy-9H-purin-9-yl)-2-ethyl-2-(hydroxymethyl)tetrahydrofuran-3-ol] reads 0.11 µM; that for `Cc1cn([C@H]2C=C[C@](CO)(C3CC3)O2)c(=O)[nH]c1=O` [compound 47, 1-((2R,5S)-5-cyclopropyl-5-(hydroxymethyl)-2,5-dihydrofuran-2-yl)-5-methylpyrimidine-2,4(1H,3H)-dione], over 25 µM; that for `C=C[C@]1(CO)O[C@@H](n2cc(OC)c(=O)[nH]c2=O)C[C@@H]1O` [Cpd. No. 6, 1-((2R,4S,5R)-4-hydroxy-5-(hydroxymethyl)-5-vinyltetrahydrofuran-2-yl)-5-methoxypyrimidine-2,4(1H,3H)-dione], over 50 µM.
The same measure for `C#C[C@]1(CO)O[C@H](n2cc(C)c(=O)[nH]c2=O)C[C@@H]1O` [compound 50, 1-((2S,4S,5R)-5-ethynyl-4-hydroxy-5-(hydroxymethyl)tetrahydrofuran-2-yl)-5-methylpyrimidine-2,4(1H,3H)-dione]: 25.5 µM; for `CC[C@]1(CO)O[C@@H](n2cnc3c(N)ncnc32)[C@@H](O)[C@@H]1O` [compound 194, (2R,3S,4S,5R)-5-(6-amino-9H-purin-9-yl)-2-ethyl-2-(hydroxymethyl)tetrahydrofuran-3,4-diol]: 1.94 µM.
